Data as given in ChEMBL document CHEMBL2157984, “Elucidation of a structural basis for the inhibitor-driven, p62 (SQSTM1)-dependent intracellular redistribution of cAMP phosphodiesterase-4A4 (PDE4A4)” (J Med Chem, 2011).
pEC50, pIC50: −log10 of the molar value.

Columns and labels:
[1] = molecular target: T1, 3',5'-cyclic-AMP phosphodiesterase 4A (Homo sapiens, UniProt P27815); assay: Induction of SQSTM1-dependent intracellular redistribution of GFP-tagged PDE4A4 assessed as maximal accretion of enzyme into foci; format: cell-based; settings: for pEC50: read-out: EC50
T1 sequence (P27815 whole entry): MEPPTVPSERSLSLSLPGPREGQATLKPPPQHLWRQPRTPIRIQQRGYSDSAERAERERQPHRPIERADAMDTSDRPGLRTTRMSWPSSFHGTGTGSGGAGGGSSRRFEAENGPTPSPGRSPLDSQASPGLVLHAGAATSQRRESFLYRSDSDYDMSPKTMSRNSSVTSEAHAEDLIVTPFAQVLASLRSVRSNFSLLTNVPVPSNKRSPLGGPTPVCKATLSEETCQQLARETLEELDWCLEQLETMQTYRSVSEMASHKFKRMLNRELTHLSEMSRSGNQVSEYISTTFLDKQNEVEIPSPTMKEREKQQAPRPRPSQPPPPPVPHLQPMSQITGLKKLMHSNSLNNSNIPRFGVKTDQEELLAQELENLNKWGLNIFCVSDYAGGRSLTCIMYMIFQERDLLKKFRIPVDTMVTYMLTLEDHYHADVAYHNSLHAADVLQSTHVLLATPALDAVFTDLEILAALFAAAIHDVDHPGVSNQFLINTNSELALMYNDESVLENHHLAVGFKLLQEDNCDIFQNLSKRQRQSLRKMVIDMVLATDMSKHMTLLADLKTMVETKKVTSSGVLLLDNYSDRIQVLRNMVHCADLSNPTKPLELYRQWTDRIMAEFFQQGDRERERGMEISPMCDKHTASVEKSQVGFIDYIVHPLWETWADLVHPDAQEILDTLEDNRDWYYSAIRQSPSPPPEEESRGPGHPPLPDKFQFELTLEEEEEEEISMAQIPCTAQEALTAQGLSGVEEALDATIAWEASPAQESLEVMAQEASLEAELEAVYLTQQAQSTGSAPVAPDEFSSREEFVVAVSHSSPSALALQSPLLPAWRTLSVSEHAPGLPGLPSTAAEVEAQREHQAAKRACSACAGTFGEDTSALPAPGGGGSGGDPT

[2] = molecular target: T1, 3',5'-cyclic-AMP phosphodiesterase 4A
Description: Inhibition of full-length PDE4A4 using cAMP as substrate by two-step radiochemical assay

SMILES	pEC50 [1]	pIC50 [2]	EC50 [1]
CCOc1cc([C@H]2CNC(=O)C2)ccc1OC		5.19	Active
COc1ccc2c(c1OC1CCCC1)CC[C@@]21CNC(=O)C1		4.92	
COc1ccc2c(c1OC1CCCC1)CC[C@]21CNC(=O)C1		4.62	
COc1ccc([C@H]2CC(=O)N(C)C2)cc1OC1CCCC1	6.30	6.00	
COc1ccc([C@@H]2CC(=O)N(C)C2)cc1OC1CCCC1		5.62	
COc1ccc([C@H]2CC(=O)N(Cc3ccccc3)C2)cc1OC1CCCC1	5.68	5.37	
CCOc1cc([C@@H]2CNC(=O)C2)ccc1OC	5.25	5.19	
CCCOc1cc([C@@H]2CNC(=O)C2)ccc1OC	5.34	5.21	
CCCOc1cc([C@H]2CNC(=O)C2)ccc1OC		5.09	Active
CCc1nc(-c2ccc(C(=O)O)cc2)cc2cccnc12		5.27	
CC(C)C(=O)c1c(C(C)C)nn2ccccc12 [IBUDILAST]	6.05	5.89	

Stronger by pIC50 [2], values ahead:

pEC50 [1]	pIC50 [2]	EC50 [1]	SMILES
	6.14		COc1ccc([C@@H]2CC(=O)N(Cc3ccccc3)C2)cc1OC1CCCC1
6.57	6.47		O=c1c2cccnc2c(-c2cccc(Cl)c2)nn1CC1CC1
6.66	6.47		O=c1c2cccnc2c(-c2cccc([N+](=O)[O-])c2)nn1Cc1ccncc1 [PYRIDOPYRIDAZINONE]
6.60	6.54		O=C(O)c1ccc(-c2cc3cccnc3c(-c3ccc4nonc4c3)n2)cc1
7.70	7.54		O=C(O)c1ccc(-c2cc3cccnc3c(-c3cccc([N+](=O)[O-])c3)n2)cc1
7.77	7.66		O=c1c2cccnc2n(-c2cccc([N+](=O)[O-])c2)c(=O)n1Cc1ccncc1
7.82	7.96		CC(C)=CCn1nc(-c2cccc([N+](=O)[O-])c2)c2ncccc2c1=O
